Laboratory results from ChEMBL document CHEMBL5352429, “Designed symmetrical β-hairpin peptides for treating multidrug-resistant salmonella typhimurium infections” (Eur J Med Chem, 2022).
Converted amounts (≈) assume the structure as drawn. The source made the active and inactive calls. The calls are words filed in the database; no cut-off is given here. Peptide text beside a SMILES is read from it.

Legend:
Salmonella paratyphi = test: Antibacterial activity against Salmonella paratyphi A CICC 21501 incubated overnight by standard microtiter dilution method; assay type: functional, Salmonella enterica subsp. enterica serovar Paratyphi A; details: Salmonella enterica
[1] = Antibacterial activity against Salmonella paratyphi C CICC 21512 incubated overnight by standard microtiter dilution method; assay type: functional, Salmonella enterica subsp. enterica serovar Paratyphi C; details: Salmonella enterica
[2] = Antibacterial activity against Salmonella blockley CICC 21489 incubated overnight by standard microtiter dilution method; assay type: functional, Salmonella enterica subsp. enterica serovar Blockley; details: Salmonella enterica
Cell membrane [3] = test: Induction of membrane damage in Salmonella typhimurium DT104 assessed as membrane creping at 1 times of MIC incubated for 60 mins by atomic force microscopic analysis; assay type: subcellular; details: Salmonella enterica subsp. enterica serovar Typhimurium
Salmonella typhimurium [4] = test: Antibacterial activity against Salmonella typhimurium DT104 infected in ICR mouse model at 2 mg/kg, ip administered for 3 days and measured on day 7; assay type: functional, organism-based; details: Salmonella enterica subsp. enterica serovar Typhimurium, time 7.0 day
Salmonella typhimurium [5] = test: Antibacterial activity against Salmonella typhimurium DT104 infected in mouse RAW264.7 cells assessed as log reduction in bacterial colony count at 1 times of MIC measured after 90 mins by MH agar based serial dilution method; assay type: functional, Salmonella enterica subsp. enterica serovar Typhimurium; details: 1.5 h
Salmonella typhimurium [6] = test: Antibacterial activity against Salmonella typhimurium DT104 assessed as reduction in TNF-alpha production in serum at 20 mg/kg, ip administered for 3 days and measured on day 7; assay type: functional, organism-based; details: Salmonella enterica subsp. enterica serovar Typhimurium, time 7.0 day
RAW264.7 [7] = test: Anti-inflammatory activity in mouse RAW264.7 cells assessed as inhibition of LPS-induced IL-8 mRNA expression at 15 ug/ml preincubated with compound for 30 mins followed by LPS stimulation and measured after 4 hrs by RT-PCR analysis; assay type: functional, cell-based; details: dose 15.0 µg/ml, time 4.5 hrs
Candida albicans = test: Antifungal activity against Candida albicans ATCC 10231 incubated overnight by standard microtiter dilution method; assay type: functional
RAW264.7 [8] = test: Inhibition of LPS-stimulated IL-8 production in mouse RAW264.7 cells at 1 to 128 ug/ml incubated for 24 hrs by ELISA analysis; assay type: functional, cell-based; details: dose 1-128 µg/ml
Escherichia coli = test: Antibacterial activity against Escherichia coli O157:H7 CICC 21530 incubated overnight by standard microtiter dilution method; assay type: functional
Salmonella typhimurium [9] = test: Antibacterial activity against Salmonella typhimurium DT104 assessed as reduction in IL-1beta production in serum at 20 mg/kg, ip administered for 3 days and measured on day 7; assay type: functional, organism-based; details: Salmonella enterica subsp. enterica serovar Typhimurium, time 7.0 day
RAW264.7 [10] = test: Anti-inflammatory activity in mouse RAW264.7 cells assessed as inhibition of LPS-induced IL-1beta mRNA expression at 15 ug/ml preincubated with compound for 30 mins followed by LPS stimulation and measured after 4 hrs by RT-PCR analysis; assay type: functional, cell-based; details: dose 15.0 µg/ml, time 4.5 hrs
Salmonella typhimurium [11] = test: Antibacterial activity against multi-drug resistant Salmonella typhimurium DT104 assessed as inhibition of bacterial growth at 0.5 to 2 times of MIC by MH agar based serial dilution method; assay type: functional, organism-based; details: Salmonella enterica subsp. enterica serovar Typhimurium, time <= 120.0 min, TDE = time-dependent effect
Salmonella typhimurium [12] = test: Antibacterial activity against Salmonella typhimurium DT104 in the presence 50% inactivated mouse serum by MH broth based assay; assay type: functional, Salmonella enterica subsp. enterica serovar Typhimurium; details: Salmonella enterica
Salmonella typhimurium [13] = test: Antibacterial activity against Salmonella typhimurium DT104 assessed as reduction in TNF-alpha mRNA level in ileum at 20 mg/kg, ip administered for 3 days and measured on day 7 by RT-PCR analysis; assay type: functional, organism-based; details: Salmonella enterica subsp. enterica serovar Typhimurium, time 7.0 day
Salmonella typhimurium [14] = test: Antibacterial activity against Salmonella typhimurium DT104 in the presence of MgCl2 by MH broth based assay; assay type: functional, Salmonella enterica subsp. enterica serovar Typhimurium; details: Salmonella enterica
Lipopolysaccharide (LPS) = test: Displacement of BODIPY-TR-cadaverine from Salmonella typhimurium LPS assessed as increase in fluorescence intensity by fluorescence spectrophotometric analysis; details: Salmonella enterica subsp. enterica serovar Typhimurium; dose 0.25-8 µg/ml
Staphylococcus aureus [15] = test: Antibacterial activity against methicillin-resistant Staphylococcus aureus ATCC 43300 incubated overnight by standard microtiter dilution method; assay type: functional
Salmonella typhimurium [16] = test: Antibacterial activity against Salmonella typhimurium DT104 in the presence of FeCl3 by MH broth based assay; assay type: functional, Salmonella enterica subsp. enterica serovar Typhimurium; details: Salmonella enterica
Salmonella typhimurium [17] = test: Antibacterial activity against Salmonella typhimurium DT104 in the presence 25% inactivated mouse serum by MH broth based assay; assay type: functional, Salmonella enterica subsp. enterica serovar Typhimurium; details: Salmonella enterica
Salmonella typhimurium [18] = test: Antibacterial activity against Salmonella typhimurium DT104 infected in ICR mouse model assessed as alleviation of villi shortening at 20 mg/kg, ip administered for 3 days and measured on day 7 by H&E staining based analysis; assay type: functional, organism-based; details: Salmonella enterica subsp. enterica serovar Typhimurium, time 7.0 day
Salmonella typhimurium [19] = test: Antibacterial activity against Salmonella typhimurium DT104 assessed as reduction in IL-8 mRNA level in ileum at 20 mg/kg, ip administered for 3 days and measured on day 7 by RT-PCR analysis; assay type: functional, organism-based; details: Salmonella enterica subsp. enterica serovar Typhimurium, time 7.0 day
Erythrocyte = test: Hemolytic activity in human Red blood cells assessed as hemolysis incubated for 1 hrs by absorbance based microplate reader analysis; assay type: toxicity, cell-based
Salmonella typhimurium [20] = test: Antibacterial activity against Salmonella typhimurium DT104 assessed as reduction in IL-6 mRNA level in ileum at 20 mg/kg, ip administered for 3 days and measured on day 7 by RT-PCR analysis; assay type: functional, organism-based; details: Salmonella enterica subsp. enterica serovar Typhimurium, time 7.0 day
[21] = test system: Salmonella enterica subsp. enterica serovar Paratyphi B; test: Antibacterial activity against Salmonella paratyphi B CICC 21495 incubated overnight by standard microtiter dilution method; assay type: functional
Salmonella typhimurium [22] = test: Antibacterial activity against Salmonella typhimurium DT104 assessed as reduction in IL-15 mRNA level in ileum at 20 mg/kg, ip administered for 3 days and measured on day 7 by RT-PCR analysis; assay type: functional, organism-based; details: Salmonella enterica subsp. enterica serovar Typhimurium, time 7.0 day
Staphylococcus aureus [23] = test: Antibacterial activity against Staphylococcus aureus ATCC 29213 incubated overnight by standard microtiter dilution method; assay type: functional
[24] = Antibacterial activity against Salmonella wandsworth CICC 21504 incubated overnight by standard microtiter dilution method; assay type: functional, Salmonella enterica subsp. enterica serovar Wandsworth; details: Salmonella enterica
RAW264.7 [25] = test: Inhibition of LPS-stimulated NO production in mouse RAW264.7 cells incubated for 24 hrs by Griess reagent based analysis; assay type: functional, cell-based; details: dose 1-128 µg/ml
RAW264.7 [26] = test: Anti-inflammatory activity in mouse RAW264.7 cells assessed as inhibition of LPS-induced IL-4 mRNA expression at 15 ug/ml preincubated with compound for 30 mins followed by LPS stimulation and measured after 4 hrs by RT-PCR analysis; assay type: functional, cell-based; details: dose 15.0 µg/ml, time 4.5 hrs
Salmonella typhimurium [27] = test: Antibacterial activity against Salmonella typhimurium DT104 assessed as increase in ZO-2 mRNA level in colon at 20 mg/kg, ip administered for 3 days and measured on day 7 by RT-PCR analysis; assay type: functional, organism-based; details: Salmonella enterica subsp. enterica serovar Typhimurium, time 7.0 day
Salmonella typhimurium [28] = test: Antibacterial activity against Salmonella typhimurium DT104 infected in ICR mouse model assessed as reduction in bacterial translocation to spleen at 2 mg/kg, ip administered for 3 days and measured on day 7 by serial dilution method; assay type: functional, organism-based; details: Salmonella enterica subsp. enterica serovar Typhimurium, time 7.0 day
Salmonella typhimurium [29] = test: Antibacterial activity against Salmonella typhimurium DT104 infected in mouse RAW264.7 cells assessed as bacterial killing at 1 times of MIC measured after 90 mins by MH agar based serial dilution method relative to control; assay type: functional, Salmonella enterica subsp. enterica serovar Typhimurium; details: 1.5 h
Salmonella enteritidis = test: Antibacterial activity against Salmonella enteritidis CICC 21527 incubated overnight by standard microtiter dilution method; assay type: functional, Salmonella enterica subsp. enterica serovar Enteritidis; details: Salmonella enterica
Cell membrane [30] = test: Induction of membrane damage in Salmonella typhimurium DT104 assessed as membrane devastation at 1 times of MIC incubated for 60 mins by atomic force microscopic analysis; assay type: subcellular; details: Salmonella enterica subsp. enterica serovar Typhimurium
Cell membrane [31] = test: Induction of membrane damage in Salmonella typhimurium DT104 assessed as membrane stunting at 1 times of MIC incubated for 60 mins by atomic force microscopic analysis; assay type: subcellular; details: Salmonella enterica subsp. enterica serovar Typhimurium

Q: With `C[C@@H](O)[C@H](NC(=O)[C@H](CS)NC(=O)[C@H](CCCCN)NC(=O)[C@H](Cc1c[nH]c2ccccc12)NC(=O)[C@H](CCCCN)NC(=O)[C@@H](N)Cc1c[nH]c2ccccc12)C(=O)N[C@@H](CCCCN)C(=O)N[C@@H](CO)C(=O)NCC(=O)N[C@@H](CS)C(=O)N[C@@H](CCCCN)C(=O)N[C@@H](Cc1c[nH]c2ccccc12)C(=O)N[C@@H](CCCCN)C(=O)N[C@@H](Cc1c[nH]c2ccccc12)C(N)=O` (H-WKWKCTKSGCKWKW-NH2) as the molecule, how does the MIC (Salmonella paratyphi) read?
A: 8 µg/mL (≈ 4.31 µM)

Q: And the MIC [1]?
A: 4 µg/mL (≈ 2.16 µM)

Q: What about the MIC [2] of the same molecule?
A: 8 µg/mL (≈ 4.31 µM)

Q: What about the Activity (Cell membrane [3]) of the same molecule?
A: Active

Q: What about the Activity (Salmonella typhimurium [4]) of the same molecule?
A: Active

Q: What about the “log(activity)” value (Salmonella typhimurium [5]) of the same molecule?
A: 3

Q: What about the Activity (Salmonella typhimurium [6]) of the same molecule?
A: Active

Q: And the inhibition (RAW264.7 [7])?
A: Active

Q: And the MIC (Candida albicans)?
A: 2 µg/mL (≈ 1.08 µM)

Q: And the inhibition (RAW264.7 [8])?
A: Active

Q: What about the MIC (Escherichia coli) of the same molecule?
A: 4 µg/mL (≈ 2.16 µM)

Q: What about the Activity (Salmonella typhimurium [9]) of the same molecule?
A: Active

Q: And the inhibition (RAW264.7 [10])?
A: Active

Q: And the Activity (Salmonella typhimurium [11])?
A: Tde

Q: What about the MIC (Salmonella typhimurium [12]) of the same molecule?
A: 32 µg/mL (≈ 17.3 µM)

Q: What about the Activity (Salmonella typhimurium [13]) of the same molecule?
A: Active

Q: What about the MIC (Salmonella typhimurium [14]) of the same molecule?
A: 4 µg/mL

Q: What about the Activity (Lipopolysaccharide (LPS)) of the same molecule?
A: Dose-Dependent Effect

Q: What about the MIC (Staphylococcus aureus [15]) of the same molecule?
A: 8 µg/mL (≈ 4.31 µM)

Q: What about the MIC (Salmonella typhimurium [16]) of the same molecule?
A: 8 µg/mL

Q: And the MIC (Salmonella typhimurium [17])?
A: 16 µg/mL (≈ 8.63 µM)

Q: And the Activity (Salmonella typhimurium [18])?
A: Active

Q: What about the Activity (Salmonella typhimurium [19]) of the same molecule?
A: Active

Q: What about the MHC (Erythrocyte) of the same molecule?
A: > 128 µg/mL

Q: What about the Activity (Salmonella typhimurium [20]) of the same molecule?
A: Active

Q: And the MIC [21]?
A: 1 µg/mL (≈ 0.539 µM)

Q: And the Activity (Salmonella typhimurium [22])?
A: Active

Q: What about the MIC (Staphylococcus aureus [23]) of the same molecule?
A: 4 µg/mL (≈ 2.16 µM)

Q: And the MIC [24]?
A: 8 µg/mL (≈ 4.31 µM)

Q: What about the inhibition (RAW264.7 [25]) of the same molecule?
A: Dose-Dependent Effect

Q: What about the inhibition (RAW264.7 [26]) of the same molecule?
A: Active

Q: And the Activity (Salmonella typhimurium [27])?
A: Active

Q: What about the Activity (Salmonella typhimurium [28]) of the same molecule?
A: Active

Q: And the Activity (Salmonella typhimurium [29])?
A: >99.9%

Q: And the MIC (Salmonella enteritidis)?
A: 8 µg/mL (≈ 4.31 µM)

Q: What about the Activity (Cell membrane [30]) of the same molecule?
A: Active

Q: And the Activity (Cell membrane [31])?
A: Active
